Measurements as given in publication PMC11344719, “Peptidomimetic inhibitors of the VEGF-A165/NRP-1 complex obtained by modification of the C-terminal arginine” (Amino Acids, 2024).
Square brackets hold non-standard residues; d marks the D form. Ends that are not written are not given here. Peptide text beside a SMILES is read from it. Phe(4-CH2NH2) = NCc1ccc(C[C@H](N)C(=O)O)cc1; hArg = N=C(N)NCCCC[C@H](N)C(=O)O; Cit = NC(=O)NCCC[C@H](N)C(=O)O; Agb = N=C(N)NCC[C@H](N)C(=O)O; Agp = N=C(N)NC[C@H](N)C(=O)O; Dab = NCC[C@H](N)C(=O)O; Dap = NC[C@H](N)C(=O)O

System: not given
Experiment: not given
Design: method as in Tymecka et al. [2018]
Conditions: ref Tymecka et al. [2018]; cited from earlier work

Molecule | t½ (stability)
N=C(N)NCCCC[C@H](N)C(=O)NCCCC[C@H](N)C(=O)N[C@@H](CN)C(=O)N1CCC[C@H]1C(=O)N[C@@H](CCCNC(=N)N)C(=O)O [Compound 1, Lys(Har)-Dap-Pro-Arg] (H-K(hArg)[Dap]PR-OH) | > 24 h
N=C(N)NCCCC[C@H](N)C(=O)NCCCC[C@H](N)C(=O)N[C@@H](CCN)C(=O)N1CCC[C@H]1C(=O)N[C@@H](CCCNC(=N)N)C(=O)O [Compound 2, Lys(Har)-Dab-Pro-Arg] (H-K(hArg)[Dab]PR-OH) | > 24 h

System: PAE/NRP1 cells
Experiment: not given
Design: method as in Jarvis et al. 2010
Conditions: 100 μM; 125I-VEGF; ref Jarvis et al. 2010; cited from earlier work

Molecule | inhibition at 100 μM
NC(N)=NCCC[C@H](NC(=O)c1sccc1NS(=O)(=O)c1cccc2nsnc12)C(=O)O [Compound D12] | 99%
KPA[dR] [Compound D7] | 22%
Lys-Pro-Ala-Arg (KPAR; printed: Lys-Pro-Ala-Arg) [Compound D6] | 83%
Lys-Pro-Ala-Lys (KPAK; printed: Lys-Pro-Ala-Lys) [Compound D8] | 22%

Same assay, conditions: 125I-VEGF; ref Jarvis et al. 2010; cited from earlier work

Molecule | IC50
NC(N)=NCCC[C@H](NC(=O)c1sccc1NS(=O)(=O)c1cccc2nsnc12)C(=O)O [Compound D12] | 8 µM
Lys-Pro-Ala-Arg (KPAR; printed: Lys-Pro-Ala-Arg) [Compound D6] | 30 µM

Target: T1, VEGF-A165/NRP-1 complex (Homo sapiens, UniProt O14786)
T1 construct: purchased BioLegend (NRP-1); Abcam (biotinylated VEGF-A165)
T1 sequence (O14786 22-641 limits assumed): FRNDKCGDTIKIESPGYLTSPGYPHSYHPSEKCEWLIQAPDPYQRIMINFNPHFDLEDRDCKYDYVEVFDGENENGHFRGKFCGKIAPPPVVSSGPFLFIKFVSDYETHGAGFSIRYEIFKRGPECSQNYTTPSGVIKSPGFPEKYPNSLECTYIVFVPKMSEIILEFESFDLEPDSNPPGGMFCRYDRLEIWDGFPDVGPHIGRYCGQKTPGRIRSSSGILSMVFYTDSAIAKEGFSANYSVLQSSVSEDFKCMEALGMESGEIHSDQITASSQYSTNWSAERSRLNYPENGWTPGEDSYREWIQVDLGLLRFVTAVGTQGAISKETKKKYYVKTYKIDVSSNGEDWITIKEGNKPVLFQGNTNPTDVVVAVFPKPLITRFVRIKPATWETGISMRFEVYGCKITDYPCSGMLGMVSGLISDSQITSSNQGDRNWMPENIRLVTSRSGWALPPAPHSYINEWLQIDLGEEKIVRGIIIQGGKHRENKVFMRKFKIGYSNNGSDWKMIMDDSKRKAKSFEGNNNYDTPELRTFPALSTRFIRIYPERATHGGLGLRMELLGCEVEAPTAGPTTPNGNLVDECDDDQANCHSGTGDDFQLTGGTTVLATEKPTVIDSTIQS
Experiment: competitive ELISA: inhibition of (bt)-VEGF-A165 binding to NRP-1
Conditions: recombinant human NRP-1; mean ± SD of three independent experiments; tested in the concentrations range 100–3.12 μM
Protocol: Inhibitory activity of the synthesized peptides was measured by a competitive ELISA test, following a protocol similar to the one previously described (Puszko et al. [2019]). […] Nonspecific binding was blocked with 0.5% BSA (BioShop, Canada) in PBS (Bioshop, Canada). Then, 50 μl peptide in PBS in the selected concentrations and 50 μl (400 ng/ml) human […] VEGF-A165 (Abcam, Cambridge, UK) in PBS containing 4 μg/ml heparin (Bioshop, Canada) were added. After 2 h of incubation at RT, the plate was washed and treated with ECL Streptavidin-Horseradish Peroxidase conjugate (GE Healthcare, Little Chalfont, UK) in PBS (1:100) for 45 min. After the final wash the chemiluminescence was quantified immediately after addition of 100 μl chemiluminescent substrate (SuperSignal ELISA Pico Chemiluminescent Substrate; Pierce Biotechnology, Rockford, IL, USA). Wells incubated with (bt)-VEGF-A165 served as a positive control (P), while wells not-coated with NRP-1 were used as a negative control (NS). […] Half-maximal inhibitory concentration (IC50, [μM]) values (mean ± SD of three independent experiments were determined by nonlinear regression analysis (log(inhibitor) vs. normalized response-variable slope) generated in GraphPad Prism 9.0.0 program (Graph Pad, San Diego, CA, USA). In order to verify the accuracy of the design assumptions, a modified competitive enzyme-linked immunosorbent assay (ELISA) was used to evaluate the inhibitory activity of the designed peptidomimetics against VEGF-A165/NRP-1 complex formation. In addition to the parent compounds (1 and 2), heptapeptide […] was used for the sake of comparison.

IC50 | Molecule
8.4 ± 1.6 µM | N=C(N)NCCCC[C@H](N)C(=O)NCCCC[C@H](N)C(=O)N[C@@H](CN)C(=O)N1CCC[C@H]1C(=O)N[C@@H](CCCNC(=N)N)C(=O)O [Compound 1, Lys(Har)-Dap-Pro-Arg] (H-K(hArg)[Dap]PR-OH)
4.7 ± 0.6 µM | N=C(N)NCCCC[C@H](N)C(=O)NCCCC[C@H](N)C(=O)N[C@@H](CCN)C(=O)N1CCC[C@H]1C(=O)N[C@@H](CCCNC(=N)N)C(=O)O [Compound 2, Lys(Har)-Dab-Pro-Arg] (H-K(hArg)[Dab]PR-OH)
29.2 ± 1.8 µM | N=C(N)NCCCC[C@H](NC(=O)[C@@H]1CCCN1C(=O)[C@H](CN)NC(=O)[C@@H](N)CCCCNC(=O)[C@@H](N)CCCCNC(=N)N)C(=O)O [Compound 3, Lys(Har)-Dap-Pro-Har] (H-K(hArg)[Dap]P[hArg]-OH)
14.3 ± 2.3 µM | N=C(N)NCCCC[C@H](NC(=O)[C@@H]1CCCN1C(=O)[C@H](CCN)NC(=O)[C@@H](N)CCCCNC(=O)[C@@H](N)CCCCNC(=N)N)C(=O)O [Compound 4, Lys(Har)-Dab-Pro-Har] (H-K(hArg)[Dab]P[hArg]-OH)
87.5 ± 10.3 µM | N=C(N)NCCCC[C@H](N)C(=O)NCCCC[C@H](N)C(=O)N[C@@H](CN)C(=O)N1CCC[C@H]1C(=O)N[C@@H](CCNC(=N)N)C(=O)O [Compound 5, Lys(Har)-Dap-Pro-Agb] (H-K(hArg)[Dap]P[Agb]-OH)
106 ± 17.4 µM | N=C(N)NCCCC[C@H](N)C(=O)NCCCC[C@H](N)C(=O)N[C@@H](CCN)C(=O)N1CCC[C@H]1C(=O)N[C@@H](CCNC(=N)N)C(=O)O [Compound 6, Lys(Har)-Dab-Pro-Agb] (H-K(hArg)[Dab]P[Agb]-OH)
148 ± 45.9 µM | N=C(N)NCCCC[C@H](N)C(=O)NCCCC[C@H](N)C(=O)N[C@@H](CN)C(=O)N1CCC[C@H]1C(=O)N[C@@H](CNC(=N)N)C(=O)O [Compound 7, Lys(Har)-Dap-Pro-Agp] (H-K(hArg)[Dap]P[Agp]-OH)
165 ± 21.1 µM | N=C(N)NCCCC[C@H](N)C(=O)NCCCC[C@H](N)C(=O)N[C@@H](CCN)C(=O)N1CCC[C@H]1C(=O)N[C@@H](CNC(=N)N)C(=O)O [Compound 8, Lys(Har)-Dab-Pro-Agp] (H-K(hArg)[Dab]P[Agp]-OH)
170 ± 55.6 µM | N=C(N)NCCCC[C@H](N)C(=O)NCCCC[C@H](N)C(=O)N[C@@H](CN)C(=O)N1CCC[C@H]1C(=O)N[C@@H](CCCNC(N)=O)C(=O)O [Compound 9, Lys(Har)-Dap-Pro-Cit] (H-K(hArg)[Dap]P[Cit]-OH)
193 ± 20.6 µM | N=C(N)NCCCC[C@H](N)C(=O)NCCCC[C@H](N)C(=O)N[C@@H](CCN)C(=O)N1CCC[C@H]1C(=O)N[C@@H](CCCNC(N)=O)C(=O)O [Compound 10, Lys(Har)-Dab-Pro-Cit] (H-K(hArg)[Dab]P[Cit]-OH)
22.8 ± 5.9 µM | N=C(N)NCCCC[C@H](N)C(=O)NCCCC[C@H](N)C(=O)N[C@@H](CN)C(=O)N1CCC[C@H]1C(=O)N[C@@H](Cc1ccc(CN)cc1)C(=O)O [Compound 11, Lys(Har)-Dap-Pro-Phe(4-CH2-NH2)] (H-K(hArg)[Dap]P[Phe(4-CH2NH2)]-OH)
19.8 ± 1.8 µM | N=C(N)NCCCC[C@H](N)C(=O)NCCCC[C@H](N)C(=O)N[C@@H](CCN)C(=O)N1CCC[C@H]1C(=O)N[C@@H](Cc1ccc(CN)cc1)C(=O)O [Compound 12, Lys(Har)-Dab-Pro-Phe(4-CH2-NH2)] (H-K(hArg)[Dab]P[Phe(4-CH2NH2)]-OH)
11.3 ± 3.2 µM | ATWLPPR [Compound A7R, Ala-Thr-Trp-Leu-Pro-Pro-Arg]

System: recombinant rat NRP-1/Fc chimera
Experiment: not given
Design: method as in Starzec et al. 2007
Conditions: 125I-VEGF, ref Starzec et al. 2007; cited from earlier work

Molecule | inhibition at 100 μM
Ala-Thr-Trp-Leu-Pro-Pro6 (ATWLPP; printed: Ala-Thr-Trp-Leu-Pro-Pro) [Compound D2] | 18%
Ala-Thr-Trp-Leu-Pro-Pro-Ala7 (ATWLPPA; printed: Ala-Thr-Trp-Leu-Pro-Pro-Ala) [Compound D3] | 17%
Ala-Thr-Trp-Leu-Pro-Pro-Lys7 (ATWLPPK; printed: Ala-Thr-Trp-Leu-Pro-Pro-Lys) [Compound D4] | 20%
Ala-Thr-Trp-Leu-Pro-Pro-Lys7-Ala8 (ATWLPPK; C-terminal Ala8; printed: Ala-Thr-Trp-Leu-Pro-Pro-Lys) [Compound D5] | 18%

Target: NRP1-b1
Experiment: not given
Design: method as in Mota et al. 2018
Conditions: SPR; ref Mota et al. 2018; cited from earlier work

Molecule | Kd
CC(C)(C)OC(=O)N[C@@H](CCCN=C(N)N)C(=O)O [Compound D9, Nα-Boc-Arg-OH] | 3 µM
NC(N)=NCCC[C@H](NC(=O)OCc1ccccc1)C(=O)O [Compound D10, Nα-Cbz-Arg-OH] | 17 µM
NC(N)=NCCC[C@H](NC(=O)c1ccccc1)C(=O)O [Compound D11, Nα-benzoyl-Arg-OH] | 24 µM
